The values below come from patent US8501796B2, “Ester pro-drugs of [3-(1-(1H-imidazol-4-yl)ethyl)-2-methylphenyl] methanol for lowering intraocular pressure” (Allergan, Inc., priority 2010, dated 2013).

Assay [1] relates to Normotensive male Dutch-Belted rabbits. Put plainly: IOP lowering in normotensive rabbits after a topical eye drop. Type of assay: in vivo. Conditions: rabbit, single 50 μl topical drop yielding 0.15% or 0.3% of active metabolite, 1% polysorbate 80 pH 5.5; IOP measured 0-8 hours; FIG. 1. As to the method:
The experimental animals used, were Normotensive male Dutch-Belted rabbits (Myrtle's Rabbitry) over 6 months in age (n=4/compound/dose screened). A single drop (50 μl) of the drug formulation, which yields 0.15% or 0.3% of the active metabolite when completely hydrolyzed in 1% polysorbate 80 at pH 5.5, was administered topically by pipette onto the right eye (treated eye) at approximately 0700 hours. IOP of the rabbits (treated and untreated eyes) was measured 0 hours before and at 0.5, 1, 2, 3, 4, 6 and 8 hours after topical eyedrop administration. IOP at the time of eye drop administration (0 hours) was used as a baseline value. Prior to the tonometric measurements, 0.05% proparacaine (50 μl) was administered to each eye. Tonometric IOP measurements were obtained with a Mentor Pneumontonmeter. Additionally, all studies were masked. At least 1 week of wash-out time was allowed for each rabbit between dosings. All animals were examined for sedation, ocular irritation, and changes in pupil diameter throughout the course of the experiments.

Assay [2] concerns monkeys. Put plainly: Intraocular pressure-lowering effect in monkeys compared to placebo. Type of assay: in vivo. Conditions: monkeys treated with composition containing the compound.

In the case of `Cc1c(COC(=O)C(C)C)cccc1[C@H](C)c1c[nH]cn1` [Compound 1, iso-Butyric acid 3-[(S)-1-(1H-imidazol-4-yl)-ethyl]-2-methyl-benzyl ester], in assay [1], the “IOP lowering capacity (efficacy) compared to Alphagan P” value is recorded as “equal or comparable efficacy to Alphagan P®” and the “intraocular pressure duration compared to Alphagan P” value is given as “longer intraocular pressure duration than Alphagan P®”. Besides, the “time for which the decrease in intraocular pressure is maintained” value in assay [2] is given as “up to 24 hours”.
